Reference: patent US20190038714A1, “ANTI-INFLAMMATORY COMPOSITION COMPRISING CLAVASPIRIN PEPTIDE ANALOGUE AS EFFECTIVE INGREDIENT” (INDUSTRY-ACADEMIC COOPERATION FOUNDATION, CHOSUN UNIVERSITY, priority 2015, published 2019)
Ends that are not written are not given here.

Legend:
[1] = tested on: S. aureus MRSA 3126; settings: 24 hours at 37° C.
[2] = tested on: S. aureus MRSA 0027; settings: 24 hours at 37° C.
[3] = tested on: S. aureus MRSA 1870; settings: 24 hours at 37° C.
[4] = tested on: S. aureus MRSA 5159; settings: 24 hours at 37° C.
[5] = tested on: S. aureus MRSA 3-359; settings: 24 hours at 37° C.
[6] = tested on: S. aureus MRSA 5156; settings: 24 hours at 37° C.
[7] = tested on: S. aureus MRSA 4761; settings: 24 hours at 37° C.
[8] = tested on: S. aureus MRSA 1630; settings: 24 hours at 37° C.
[9] = tested on: Staphylococcus aureus, ATCC 25923; experiment: Growth minimum inhibitory concentration (MIC), microtiter broth dilution; type: cell-based; settings: S. aureus; 12 hours at 37° C.
Source text: (§1) To compare the antimicrobial activity of the peptide produced by the method of Example 1, the inventors of the present invention measured the growth minimum inhibitory concentration (MIC), which is minimum concentration of the peptide showing no dissociation of bacterial cells.
(§2) Specifically, E. coli (Escherichia coli, ATCC 25922), and P. aeruginosa (Pseudomonas aeruginosa, ATCC 15692), S. typhimurium (Salmonella typhimurium, KTCC 1926), and P. vulgaris (Proteus vulgaris, KCTC 2433 as Gram-negative bacteria, and S. aureus (Staphylococcus aureus, ATCC 25923), L. monocytogenes (Listeria monocytogenes, ATCC 19115), B. subtilis (Bacillus subtilis, KCTC 1918), and S. epidermidis (Staphylococcus epidermidis, KCTC 3096) as Gram-positive bacteria were used after obtaining them from American Type Culture Collection (ATCC) or Korean Cell Line Bank. Each bacterial cell line was cultured in LB medium (1% bacto tryptone, 0.5% bacto yeast extract, and 1% sodium chloride; Sigma, USA) to a mid-log phase at pH of 5.5 or 7.4. After that, the cells were diluted in 1% bacto peptone medium (Difco, USA) to have cell body concentration of 5×10^5 cells/100 μl, and then inoculated to a microtiter plate (NUNC, USA). Thereafter, each of CSP-4 peptide synthesized in Example 1 above and the mother peptide was diluted, 1/2 times for each, at pH of 5.5 or 7.4 in a 96-well plate. After adding the cells to the plate, the cells were cultured for 12 hours at 37° C. Then, the absorbance was measured at a wavelength of 620 nm by using a microtiter plate reader (Merck Elisa reader, Germany) to determine the MIC value of each bacterial strain.

[10] = tested on: Pseudomonas aeruginosa, ATCC 15692; experiment: as above; type: cell-based; settings: P. aeruginosa; 12 hours at 37° C.
Source text: as §1, §2

[11] = tested on: Salmonella typhimurium, KTCC 1926; experiment: as above; type: cell-based; settings: S. typhimurium; 12 hours at 37° C.
Source text: as §1, §2

[12] = tested on: Staphylococcus epidermidis, KCTC 3096; experiment: as above; type: cell-based; settings: S. epidermidis; 12 hours at 37° C.
Source text: as §1, §2

[13] = tested on: Escherichia coli, ATCC 25922; experiment: as above; type: cell-based; settings: 12 hours at 37° C., pH of 5.5 or 7.4 (not given)
Source text: as §1, §2

[14] = tested on: Proteus vulgaris, KCTC 2433; experiment: as above; type: cell-based; settings: P. vulgaris; 12 hours at 37° C.
Source text: as §1, §2

[15] = tested on: Listeria monocytogenes, ATCC 19115; experiment: as above; type: cell-based; settings: L. monocytogenes; 12 hours at 37° C.
Source text: as §1, §2

[16] = tested on: Bacillus subtilis, KCTC 1918; experiment: as above; type: cell-based; settings: B. subtilis; 12 hours at 37° C.
Source text: as §1, §2

[17] = tested on: S. aureus MRSA 3518; settings: 24 hours at 37° C.
[18] = tested on: S. aureus MRSA 5157; settings: 24 hours at 37° C.
[19] = Cytotoxicity in normal cell line (MTT); type: cell-based, human; settings: human, HaCaT cells (keratinocyte cell line), HaCaT, 24 hours, MTT, read-out: Cell survival ability %; for viability at 24 h, 25 µM: peptide 25 μM; for viability at 24 h, 50 µM: peptide 50 μM; for viability at 24 h, 100 µM: peptide 100 μM; for viability at 24 h, 200 µM: peptide 200 μM; for viability at 24 h, 400 µM: peptide 400 μM
Description: To determine the cytotoxicity of the peptide produced by the method of Example 1 in normal cell line, toxicity was measured by using human keratinocyte forming cell line (HaCaT cell line, Dr. NE. Fusenig, Heidelberg, Germany).
Specifically, HaCaT cells which have been cultured in DMEM medium containing 10% FBS (Fetal Bovine Serum) were aliquoted in a 96-well plate (3×10^3 cells/well). […] After the culture, a reaction solution containing 5 mg/ml MTT (Thiazolyl Blue Tetrazolium Bromide) dissolved in physiological saline (PBS) was added in an amount of 20 μl to each well and allowed to react for 4 hours. After that, the supernatant was removed, and, by dissolving the formed MTT crystals by adding 200 μl of DMSO, the absorbance at 560 nm was measured to determine the cell survival ability.

[20] = tested on: S. aureus MRSA 3511; settings: 24 hours at 37° C.
[21] = tested on: S. aureus MRSA 2-122; settings: 24 hours at 37° C.
[22] = tested on: S. aureus MRSA 1635; settings: 24 hours at 37° C.

| Substance | MIC [1] [µM] | MIC [2] [µM] | MIC [3] [µM] | MIC [4] [µM] | MIC [5] [µM] | MIC [6] [µM] | MIC [7] [µM] | MIC [8] [µM] | Growth minimum inhibitory concentration [9] [µM] | Growth minimum inhibitory concentration [10] [µM] | Growth minimum inhibitory concentration [11] [µM] | Growth minimum inhibitory concentration [12] [µM] | Growth minimum inhibitory concentration [13] [µM] | Growth minimum inhibitory concentration [14] [µM] | Growth minimum inhibitory concentration [15] [µM] | Growth minimum inhibitory concentration [16] [µM] | MIC [17] [µM] | MIC [18] [µM] | viability at 24 h, 25 µM [19] [%] | viability at 24 h, 50 µM [19] [%] | further results |
| --- | --- | --- | --- | --- | --- | --- | --- | --- | --- | --- | --- | --- | --- | --- | --- | --- | --- | --- | --- | --- | --- |
| FLRFIGSVIHGIGHLVHHIGVAL-NH2 [Clavaspirin] | 16 | 16 | 8 | 32 | 16 | 8 | 32 | 8 | 16 | 32 | 32 | 4 | 2 | 8 | 16 | 16 | 8 | 8 | 15 | 3 | viability at 24 h, 100 µM [19]: 1%; viability at 24 h, 200 µM [19]: 1%; viability at 24 h, 400 µM [19]: 0%; MIC [20]: 8 µM; MIC [21]: 8 µM; MIC [22]: 16 µM |
| FLRFIGSVKHGKGHLVHHIGVAL-NH2 [CSP-4] | 8 | 8 | 8 | 8 | 8 | 8 | 8 | 8 | 8 | 32 | 64 | 4 | 2 | 4 | 4 | 4 | 8 | 8 | 100 | 100 | viability at 24 h, 100 µM [19]: 100%; viability at 24 h, 200 µM [19]: 100%; viability at 24 h, 400 µM [19]: 88%; MIC [20]: 8 µM; MIC [21]: 8 µM; MIC [22]: 8 µM |
